Laboratory results published in US9676782B2, “Substituted pyrazolo[1,5-a]pyrazines as negative allosteric modulators of metabotropic glutamate receptor 3” (Vanderbilt University, priority 2014, dated 2017).
Where two headings read alike, the source gives them in different places.

Experiments:
[1] = target: rat mGlu3 (Rattus norvegicus (Rat), UniProt P31422); test: mGlu3 Ca2+ flux assay; format: cell-based; details: for remaining activity at 30 µM: amplitude of response at 30 μM test compound as % of maximal response to glutamate, read-out: rat mGlu3 Glu max (%); for mGlu3 Glu max: response at 30 μM compound as percentage of maximal glutamate response
In short: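 This calcium mobilization assay used rat mGlu3 cells cultured overnight (37° C., 5% CO2) and read on the FDSS7000 after a 10 minute room-temperature incubation in 20 μL assay buffer. Each of 360 readings per well was divided by its initial value (F/F0). Potency came from fitting normalized responses against log concentration with an unconstrained 4 parameter logistic equation, weighting triplicate points equally.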

[2] = target: rat mGlu5 (Rattus norvegicus (Rat), UniProt P31424); test: mGlu5 Ca2+ flux assay; format: cell-based; details: for Emax at 30 µM: read-out: rat mGlu5 Glu max (%); for Fold selectivity (mGlu3 vs. mGlu5): ratio of rat mGlu5 EC50 or IC50 to rat mGlu3 IC50
In short: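 Ca2+ flux read kinetically (FDSS7000) after overnight culture at 37° C/5% CO2 and a 5 min room-temperature buffer step following dye removal. Signals expressed per well as F/F0 and normalized to peak glutamate response; EC50 fitted by free 4-parameter logistic, three replicates per concentration equally weighted.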

[3] = NAM potency, decrease of glutamate EC80 response, >30,000 = no measurable activity, >10,000 = no plateau, read-out: rat mGlu3 IC50
[4] = read-out: rat mGlu5 EC50 or IC50
[5] = PAM, amplitude of response at 30 μM test compound as % of maximal response to glutamate
[6] = Table 2 compounds with X = NMe, read-out: mGlu3 IC50
[7] = Table 2 compounds with X = NMe, read-out: mGlu5 EC50

Chain of rat mGlu3 (P31422 23-879): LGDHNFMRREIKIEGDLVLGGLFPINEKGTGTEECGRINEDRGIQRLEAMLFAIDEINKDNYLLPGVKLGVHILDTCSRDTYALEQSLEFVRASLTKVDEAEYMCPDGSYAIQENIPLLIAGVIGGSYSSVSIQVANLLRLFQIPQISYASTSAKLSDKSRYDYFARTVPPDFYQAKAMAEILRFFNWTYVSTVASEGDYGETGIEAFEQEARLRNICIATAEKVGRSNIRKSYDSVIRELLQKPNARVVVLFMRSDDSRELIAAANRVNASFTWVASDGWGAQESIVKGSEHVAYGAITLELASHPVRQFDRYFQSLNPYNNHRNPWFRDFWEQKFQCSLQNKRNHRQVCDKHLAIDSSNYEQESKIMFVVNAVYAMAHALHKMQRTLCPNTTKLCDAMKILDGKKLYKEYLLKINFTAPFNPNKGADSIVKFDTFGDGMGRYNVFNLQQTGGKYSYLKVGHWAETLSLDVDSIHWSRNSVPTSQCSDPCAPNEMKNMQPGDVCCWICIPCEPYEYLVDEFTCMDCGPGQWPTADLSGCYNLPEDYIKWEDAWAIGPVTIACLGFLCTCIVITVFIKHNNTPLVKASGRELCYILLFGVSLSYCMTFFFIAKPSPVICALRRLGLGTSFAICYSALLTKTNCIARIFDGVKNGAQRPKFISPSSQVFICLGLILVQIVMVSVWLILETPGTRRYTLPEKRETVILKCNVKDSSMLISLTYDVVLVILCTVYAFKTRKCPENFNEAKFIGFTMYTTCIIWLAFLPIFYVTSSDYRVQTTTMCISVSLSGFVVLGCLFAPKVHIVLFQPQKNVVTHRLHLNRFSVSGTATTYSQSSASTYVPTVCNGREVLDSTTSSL
Chain of rat mGlu5 (P31424 21-1203): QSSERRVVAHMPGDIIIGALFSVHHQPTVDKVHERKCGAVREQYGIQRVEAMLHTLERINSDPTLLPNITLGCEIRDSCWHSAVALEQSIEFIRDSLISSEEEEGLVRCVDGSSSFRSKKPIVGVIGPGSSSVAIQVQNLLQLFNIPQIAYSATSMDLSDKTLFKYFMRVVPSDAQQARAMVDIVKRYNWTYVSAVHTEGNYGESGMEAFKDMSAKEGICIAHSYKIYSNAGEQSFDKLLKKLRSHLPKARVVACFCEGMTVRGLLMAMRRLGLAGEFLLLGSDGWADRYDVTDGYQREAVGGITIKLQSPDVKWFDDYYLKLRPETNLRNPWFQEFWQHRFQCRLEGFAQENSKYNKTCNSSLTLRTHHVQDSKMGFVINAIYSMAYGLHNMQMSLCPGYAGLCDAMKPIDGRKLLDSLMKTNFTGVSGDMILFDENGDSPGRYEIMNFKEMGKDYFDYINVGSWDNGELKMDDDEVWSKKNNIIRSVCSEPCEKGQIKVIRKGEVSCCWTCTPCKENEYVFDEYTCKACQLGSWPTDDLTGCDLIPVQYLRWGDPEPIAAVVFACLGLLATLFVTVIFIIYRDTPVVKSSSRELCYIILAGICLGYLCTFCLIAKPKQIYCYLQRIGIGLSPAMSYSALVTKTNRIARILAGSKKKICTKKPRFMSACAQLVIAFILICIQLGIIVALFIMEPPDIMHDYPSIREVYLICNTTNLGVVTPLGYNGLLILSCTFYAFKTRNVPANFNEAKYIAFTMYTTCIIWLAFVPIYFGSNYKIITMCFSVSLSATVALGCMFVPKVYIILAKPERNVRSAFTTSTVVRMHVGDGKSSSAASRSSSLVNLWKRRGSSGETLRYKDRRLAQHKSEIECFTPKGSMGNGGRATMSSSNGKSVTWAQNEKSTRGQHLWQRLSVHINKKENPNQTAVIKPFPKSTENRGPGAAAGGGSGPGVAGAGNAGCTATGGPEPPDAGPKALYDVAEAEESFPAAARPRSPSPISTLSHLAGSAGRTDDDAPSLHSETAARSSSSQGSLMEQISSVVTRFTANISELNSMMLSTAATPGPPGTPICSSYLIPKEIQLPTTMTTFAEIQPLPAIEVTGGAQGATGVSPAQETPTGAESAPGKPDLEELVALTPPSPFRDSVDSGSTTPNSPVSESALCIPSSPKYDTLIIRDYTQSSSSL

Row | Compound | IC50 [1, 3] | remaining activity at 30 µM [1] | Fold selectivity (mGlu3 vs. mGlu5) [2] | EC50 [2, 4] | also measured
1 | O=C1c2cc(CNc3ccc(Cl)cn3)nn2CCN1c1ccc(F)cc1 [Compound 158, 2-(((5-chloropyridin-2-yl)amino)methyl)-5-(4-fluorophenyl)-6,7-dihydropyrazolo[1,5-a]pyrazin-4(5H)-one] | 602 nM | 1.27% | 4.02 |  | IC50 ([2]; compound noted as NAM or partial antagonist (PAnt) at mGlu5, glutamate EC80, read-out: rat mGlu5 EC50 or IC50): 2420 nM; Emax at 30 µM ([2]; compound noted as NAM or partial antagonist (PAnt) at mGlu5, response at 30 μM as % of maximal glutamate response): 73.6%
2 | CS(=O)(=O)c1ccc(NCc2cc3n(n2)CCN(c2ccc(F)cc2)C3=O)cc1 [Compound 25, 5-(4-fluorophenyl)-2-(((4-(methylsulfonyl)phenyl)amino)methyl)-6,7-dihydropyrazolo[1,5-a]pyrazin-4(5H)-one] |  | 66.9% | >3 | > 30000 nM | IC50 ([1]; read-out: rat mGlu3 IC50): > 10000 nM
3 | COc1ccc(N(C)Cc2cc3n(n2)CCN(c2ccc(C)cc2)C3=O)cc1 [Compound 99, 2-(((4-methoxyphenyl)(methyl)amino)methyl)-5-(p-tolyl)-6,7-dihydropyrazolo[1,5-a]pyrazin-4(5H)-one] | 675 nM | 1.2% | >44 | > 30000 nM | 
4 | COc1ccc(N(C)Cc2cc3n(n2)CCN(c2cc(F)cc(F)c2)C3=O)cc1 [Compound 104, 5-(3,5-difluorophenyl)-2-(((4-methoxyphenyl)(methyl)amino)methyl)-6,7-dihydropyrazolo[1,5-a]pyrazin-4(5H)-one] | 856 nM | 1.3% | >35 | > 30000 nM | 
5 | COc1ccc(NCc2cc3n(n2)[C@H](C)CN(c2ccc(F)cc2)C3=O)cc1 [Compound 62, (R)-5-(4-fluorophenyl)-2-(((4-methoxyphenyl)amino)methyl)-7-methyl-6,7-dihydropyrazolo[1,5-a]pyrazin-4(5H)-one] | 2990 nM | 0.79% | >10 | > 30000 nM | 
6 | Cc1cccc(NCc2cc3n(n2)CCN(c2ccc(F)cc2)C3=O)c1 [Compound 8, 5-(4-fluorophenyl)-2-((m-tolylamino)methyl)-6,7-dihydropyrazolo[1,5-a]pyrazin-4(5H)-one] | 1350 nM | 2.85% | 4.41 | 5960 nM | Emax at 30 µM [2, 5]: 79.4%
7 | C[C@H]1CN(c2ccc(F)cc2)C(=O)c2cc(CNc3cccc(Cl)c3)nn21 [Compound 49, (S)-2-(((3-chlorophenyl)amino)methyl)-5-(4-fluorophenyl)-7-methyl-6,7-dihydropyrazolo[1,5-a]pyrazin-4(5H)-one] |  | -0.54% | 4.45 | 5920 nM | IC50 ([1]; read-out: rat mGlu3 IC50): 1330 nM; Emax at 30 µM [2, 5]: 76.5%
8 | COc1ccc(N(C)Cc2cc3n(n2)CCN(c2ccc(F)c(F)c2)C3=O)cc1 [Compound 97, 5-(3,4-difluorophenyl)-2-(((4-methoxyphenyl)(methyl)amino)methyl)-6,7-dihydropyrazolo[1,5-a]pyrazin-4(5H)-one] | 1080 ± 240 nM | 1.74 ± 0.56% | >27 | > 30000 nM | 
9 | COc1ccc(N(C)Cc2cc3n(n2)CCN(c2csc(C)n2)C3=O)cc1 [Compound 115, 2-(((4-methoxyphenyl)(methyl)amino)methyl)-5-(2-methylthiazol-4-yl)-6,7-dihydropyrazolo[1,5-a]pyrazin-4(5H)-one] | 1620 nM | 3.88% | >18 | > 30000 nM | 
10 | C[C@@H]1CN(c2ccc(F)cc2)C(=O)c2cc(CNc3ccccc3F)nn21 [Compound 42, (R)-5-(4-fluorophenyl)-2-(((2-fluorophenyl)amino)methyl)-7-methyl-6,7-dihydropyrazolo[1,5-a]pyrazin-4(5H)-one] | 871 nM | 0.89% | >11 | > 10000 nM | Emax at 30 µM [2, 5]: 71.4%
11 | C[C@@H]1CN(c2ccc(F)cc2)C(=O)c2cc(CNc3ccc(CC#N)cc3)nn21 [Compound 66, (R)-2-(4-(((5-(4-fluorophenyl)-7-methyl-4-oxo-4,5,6,7-tetrahydropyrazolo[1,5-a]pyrazin-2-yl)methyl)amino)phenyl)acetonitrile] | 1460 nM | 0.95% | >20 | > 30000 nM | 
12 | C[C@H]1CN(c2ccc(F)cc2)C(=O)c2cc(CNc3ccccc3)nn21 [Compound 41, (S)-5-(4-fluorophenyl)-7-methyl-2-((phenylamino)methyl)-6,7-dihydropyrazolo[1,5-a]pyrazin-4(5H)-one] | 8110 nM | -2.27% | 0.17 | 1360 nM | Emax at 30 µM [2, 5]: 81.7%
13 | CN(Cc1cc2n(n1)CCN(c1ccc(F)cc1)C2=O)c1ccc(F)cc1 [drawing 32 X = NMe] |  |  |  |  | IC50 [1, 6]: 467 nM; mGlu3 Glu max ([1]; Table 2 compounds with X = NMe): 1%; EC50 [2, 7]: > 30000 nM
14 | O=C1c2cc(CNc3ccc(F)cc3)nn2CCN1c1ccc(F)cc1 [Compound 13, 5-(4-fluorophenyl)-2-(((4-fluorophenyl)amino)methyl)-6,7-dihydropyrazolo[1,5-a]pyrazin-4(5H)-one] | 1150 nM | 2.22% | 2.83 | 3260 nM | Emax at 30 µM [2, 5]: 56.6%
15 | O=C1c2cc(COc3ccccc3)nn2CCN1c1ccc(F)cc1 [drawing 29 X = O, reference compound] |  |  |  |  | IC50 ([1]; Table 2 compounds with X = O, read-out: mGlu3 IC50): 278 nM; mGlu3 Glu max ([1]; Table 2 compounds with X = O): 2%; EC50 ([2]; Table 2 compounds with X = O, read-out: mGlu5 EC50): 44 nM; mGlu5 Glu max ([2]; Table 2 compounds with X = O, response at 30 μM compound as percentage of maximal glutamate response): 79%
16 | C[C@@H]1CN(c2ccc(F)cc2)C(=O)c2cc(CNc3ccc(F)cc3)nn21 [Compound 56, (R)-5-(4-fluorophenyl)-2-(((4-fluorophenyl)amino)methyl)-7-methyl-6,7-dihydropyrazolo[1,5-a]pyrazin-4(5H)-one] | 1160 nM | 2.97% | >25 | > 30000 nM | 
17 | COc1ccc(NCc2cc3n(n2)CCN(c2ccc(Cl)cc2)C3=O)cc1 [Compound 81, 5-(4-chlorophenyl)-2-(((4-methoxyphenyl)amino)methyl)-6,7-dihydropyrazolo[1,5-a]pyrazin-4(5H)-one] | 1360 nM | 15.4% | >22 | > 30000 nM | 
18 | CN(Cc1cc2n(n1)CCN(c1ccc(F)cc1)C2=O)c1cc(F)cc(F)c1 [Compound 94, 2-(((3,5-difluorophenyl)(methyl)amino)methyl)-5-(4-fluorophenyl)-6,7-dihydropyrazolo[1,5-a]pyrazin-4(5H)-one] | 660 nM | 1.58% | >15 | > 10000 nM | Emax at 30 µM [2, 5]: 29.9%
19 | O=C1c2cc(CNc3ncccc3F)nn2CCN1c1ccc(F)cc1 [Compound 165, 5-(4-fluorophenyl)-2-(((3-fluoropyridin-2-yl)amino)methyl)-6,7-dihydropyrazolo[1,5-a]pyrazin-4(5H)-one] | 2110 nM | 1.66% | >14 | > 30000 nM | 
20 | CN(Cc1cc2n(n1)CCN(c1ccc(F)cc1)C2=O)c1ccccc1F [drawing 30 X = NMe] |  |  |  |  | IC50 [1, 6]: 876 nM; mGlu3 Glu max ([1]; Table 2 compounds with X = NMe): −1%; EC50 [2, 7]: > 30000 nM
21 | O=C1c2cc(CNc3ccc(OC(F)F)cc3F)nn2CCN1c1ccc(Cl)cn1 [Compound 148, 5-(5-chloropyridin-2-yl)-2-(((4-(difluoromethoxy)-2-fluorophenyl)amino)methyl)-6,7-dihydropyrazolo[1,5-a]pyrazin-4(5H)-one] | 930 nM | 3.97% | >32 | > 30000 nM | 
22 | Cc1ccc(NCc2cc3n(n2)CCN(c2ccc(F)cc2)C3=O)nc1 [Compound 159, 5-(4-fluorophenyl)-2-(((5-methylpyridin-2-yl)amino)methyl)-6,7-dihydropyrazolo[1,5-a]pyrazin-4(5H)-one] | 1770 nM | 0.86% | >16 | > 30000 nM | 
23 | COc1ccc(N(C)Cc2cc3n(n2)CCN(c2ccc(F)cc2Cl)C3=O)cc1 [Compound 130, 5-(2-chloro-4-fluorophenyl)-2-(((4-methoxyphenyl)(methyl)amino)methyl)-6,7-dihydropyrazolo[1,5-a]pyrazin-4(5H)-one] | 1950 nM | 2.05% | >15 | > 30000 nM | 
24 | O=C1c2cc(CNc3c(F)cc(F)cc3F)nn2CCN1c1ccc(F)cc1 [Compound 33, 5-(4-fluorophenyl)-2-(((2,4,6-trifluorophenyl)amino)methyl)-6,7-dihydropyrazolo[1,5-a]pyrazin-4(5H)-one] | 1270 nM | 1.82% | 0.87 | 1110 nM | Emax at 30 µM [2, 5]: 89.7%
